Here are results for one compound from patent US20260007634A1, “PHARMACEUTICAL COMPOSITIONS FOR THE TREATMENT OF ALLERGIC DISEASES” (KINKI UNIVERSITY, priority 2022, published 2026).

Experiment [1] has as its system NF-κB p52. Description: LPS-stimulated B cells, nuclear NF-κB p52 (Western blotting). As to conditions: 10 μM compound; vs 10 μg/mL LPS. Format: cell-based, mouse. How it is done: (§1) Spleens were harvested from 6-week-old male Balb/c mice and B cells were isolated. After isolation, the cells were seeded in […] dish and cultured in RPMI 1640 medium for 1 day and used as control. In addition, B cells were seeded into 100 mm^2 dish, and after 1 day of culture, 10 μg/mL LPS was added and cultured for 1 h. Furthermore, B cells were seeded in […] dish, and after 1 day of culture, 10 μM mangiferin 8a and 10 μM norathyriol were added to B cells, and after 23 h, 10 μg/mL LPS was added to each, and the cells were incubated for 1 h. All were incubated at 37° C. and 5% CO2.
(§2) Proteins were extracted with cell lysate and used as samples. Each sample was transferred to a PVDF membrane after SDSPAGE and assayed with anti-phospho-NIK, anti-NIK, anti-NF-κB p52, anti-NF-κB p65 and anti-Lamin antibodies.
(§3) The antibody species is indicated in the vertical direction. Specifically, in the case of anti-phospho-NIK antibody (described as “Phospho-NIK”), anti-NIK antibody (described as “NIK”), anti-NF-κB p52 antibody (described as “NF-κB p52 nuclear”), anti-NF-κB p65 antibody (described as “NF-κB p65 nuclear”) and anti-Lamin antibody (described as “Lamin”).

For another experiment, the system named is Th1 cells. The experiment can be described thus: Th1 cell activation in inflammation-induced mouse model (IFNγ flow cytometry). In kind it is in vivo. The note with it: DBA/1J mice, Freund's complete adjuvant + bovine type2 collagen; oral 10 mg/kg daily 20 days; thymus cells; vs vehicle group. Here is the method:
Equal volume mixtures of Freund's complete adjuvant and Bovine type2 collagen were administered to 6-week-old male DBA/1J mice (Japan SLC Inc.) at 0.1 mL (day 0 of the study). 21 days later, DBA/1J mice were again injected with 0.1 mL of the above mixture for secondary immunization. After the second immunization, mice were orally treated with 10 mg/kg of mangiferin 8a and 10 mg/kg of norathyriol daily for 20 days. 20 days later, thymus glands were harvested from mice and stained with anti-CD4 and anti-IFNγ antibodies, which are Th1 cell markers, and expression of IFNγ (CD4 positive) was measured using BD LSRFortessa.

The test system of a further experiment is IL-6. Description: LPS-stimulated IL-6 secretion in macrophages (ELISA). In kind it is cell-based, mouse. As to conditions: 10 μM compound, 10 μg/mL LPS 2 days, control 13.13, LPS 321.13. Here is the method: Mouse macrophages were used to examine the inhibition of compounds on IL-6 secretion in LPS stimulation.
Mouse macrophages were cultured in RPMI 1640 medium for 1 day. Then, 10 μM mangiferin 8a and 10 μM norathyriol were added to macrophages, and after 1 day of culture, 10 μg/mL of LPS was added to each, followed by 2 days of culture. After these samples were incubated for 2 days, the culture supernatant was collected and IL-6 secretion was measured by enzyme-linked immunosorbent assay (ELISA). The mouse IL-6 ELISA kit (R&D) was used for this measurement.
For orientation: An ELISA detects its analyte on a solid surface through an enzyme-linked reagent.

Experiment [2] relates to NF-κB p52. Description: BAFF-stimulated B cells, nuclear NF-κB p52 (Western blotting). In kind it is cell-based, mouse. As to conditions: vs 100 ng/mL BAFF; 100 μM mangiferin, 20 μM 1,3,5,6-tetrahydroxyxanthone, 10 μM others. Here is the method:
as §1, with “culture, 100 ng/mL BAFF” for “culture, 10 μg/mL LPS”, “culture, 100 μM mangiferin,” for “culture,”, “mangiferin 8a, 10 μM norathyriol, 20 μM 1,3,5,6-tetrahydroxyxanthone, 10 μM xanthohydrol, 10 μM of α-mangostin,” for “mangiferin 8a”, “μM of γ-mangostin” for “μM norathyriol”, “h, 100 ng/mL BAFF” for “h, 10 μg/mL LPS”
as §2, §3
On the technique in general: In western blotting, separated proteins are transferred to a membrane and probed.

In the next experiment the test system is IL-4. The experiment can be described thus: Auricular tissue IL-4 ELISA, atopic dermatitis mice. In kind it is in vivo, mouse. The note with it: day 7, topical application, control 56, vehicle 152. Here is the method: (§4) MC903 at 2 nM was applied to the right auricle of a 6-week-old male Balb/c (Japan SLC Inc.). Starting 8 h later, 5% norathyriol aqueous solution (1 mL of ethanol containing […] of norathyriol), betamethasone ointment, and delgocitinib ointment were applied to the auricle for 7 days. The measurement of auricular skin swelling was calculated by calipers. The day on which the first application of the compound was made was defined as day 0. Betamethasone and delgocitinib are currently in clinical use in atopic dermatitis and were used as control drugs in this example.
The mouse IL-4 ELISA kit (R&D) was used for this measurement.

For a further experiment, the system named is IL-5. The experiment can be described thus: Auricular tissue IL-5 ELISA, atopic dermatitis mice. Format: in vivo, mouse. As to conditions: day 7, topical application, control 15, vehicle 32. Here is the method:
as §4
The mouse IL-5 ELISA kit (R&D) was used for this measurement.

Experiment [3] concerns Balb/c mice with ovalbumin-induced food allergy. The experiment can be described thus: Frequency of diarrhea, ovalbumin-induced food allergy mice. The note with it: OVA food allergy; oral daily 14 days from day 14, 10 mg/kg (dexamethasone 2 mg/kg); measured day 28; vs vehicle group. Format: in vivo, mouse. How it is done:
A 0.2 mL dose of 10 μg ovalbumin (OVA) and 1 mg Alum mixture was administered to 6-week-old female Balb/c mice (Japan SLC Inc.) (day 0 of the example). Alum was used as an adjuvant. Seven days later, the Balb/c mice were immunized again with a 0.2 mL injection of the above mixture. Starting on day 14, mice were orally treated with 10 mg/kg of norathyriol, 10 mg/kg of mangiferin 8a, 10 mg/kg of tofacitinib (JAK inhibitor), 2 mg/kg of dexamethasone (steroid) and 10 mg/kg of olopatadine (antihistamine) daily for 14 consecutive days. Starting on day 14, 10 mg OVA was administered orally every other day […], and the frequency of diarrhea was measured after the final administration on day 28. Note that tofacitinib, dexamethasone, and olopatadine are currently in clinical use in food allergy and were used as control drugs in this example.
The group that was just immunized with OVA is called the subject group, the one that received norathyriol is called the norathyriol group, the one that received mangiferin 8a is called the mangiferin 8a group, the one that received tofacitinib is called the tofacitinib group, the one that received dexamethasone is called the dexamethasone group, and the one that received olopatadine is called the olopatadine group. Each group consisted of five animals.

Take `O=c1c2cc(O)c(O)cc2oc2cc(O)cc(O)c12` [norathyriol, 1,3,6,7-tetrahydroxyxanthone]: the “nuclear NF-κB p52 band (immunoblotting)” value with NF-κB p52 [1] and in the experiment on NF-κB p52 [2] was “fainter” each time. In the experiment with Th1 cells, the “IFNγ expression (CD4 positive)” value was “markedly reduced”. This compound gave an IL-6 secretion in the experiment on IL-6 of 64.13 pg/mL. The same compound registered an IL-4 secretion with IL-4 of 94 pg/mL. In the experiment with IL-5, the IL-5 secretion was found to be 14 pg/mL. For the same compound, the frequency of diarrhea result in experiment [3] is “showed a marked decrease in the frequency of diarrhea”.
